Measured values taken from ChEMBL document CHEMBL1134149, “Discovery, total synthesis, HRV 3C-protease inhibitory activity, and structure-activity relationships of 2-methoxystypandrone and its analogues” (Bioorg Med Chem Lett, 2001).

Legend:
[1] = biological target: T1, Papain (Carica papaya, UniProt P00784); assay: Inhibitory activity against papain using HPLC assay
T1 sequence (P00784 whole entry): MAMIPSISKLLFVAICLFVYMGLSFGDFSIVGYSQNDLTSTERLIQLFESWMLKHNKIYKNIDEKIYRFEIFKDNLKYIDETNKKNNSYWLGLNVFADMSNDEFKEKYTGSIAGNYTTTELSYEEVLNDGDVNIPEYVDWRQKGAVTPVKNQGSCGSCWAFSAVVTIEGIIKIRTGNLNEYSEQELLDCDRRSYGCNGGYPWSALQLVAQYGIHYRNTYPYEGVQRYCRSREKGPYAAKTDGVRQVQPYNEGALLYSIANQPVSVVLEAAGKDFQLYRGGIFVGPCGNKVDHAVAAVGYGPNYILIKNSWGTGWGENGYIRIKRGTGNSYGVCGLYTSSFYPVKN

[2] = biological target: T2, Papain (Carica papaya) (UniProt P00784); assay: Percent inhibition against papain; details: concentration not given here
T2 sequence (whole entry): T1 sequence (P00784 whole entry)

| Compound | IC50 [1] | inhibition [2] |
| --- | --- | --- |
| COC1=CC(=O)c2c(cc(C)c(C(C)=O)c2OC(C)=O)C1=O | 33 µM | – |
| COC1=CC(=O)c2c(cc(C)c(C(C)=O)c2O)C1=O | 23 µM | – |
| O=C1C=CC(=O)c2c1ccc1c2ccc2ccccc21 | 18 µM | 45% |
| O=C1C=Cc2ccccc2C1=O [1,2-NAPHTHOQUINONE] | 120 µM | 67% |
| O=C1C(=O)c2ccccc2-c2ccccc21 [9,10-PHENANTHRENEQUINONE] | 91 µM | 24% |
| O=C1C=CC(=O)c2ccccc21 [NAPHTHOQUINONE] | 29 µM | – |
